Test results: patent publication US20050215601A1, “Therapeutic agent for rheumatic disease comprising benzamide derivative as active ingredient” (SANTEN PHARMACEUTICAL CO., LTD., priority 2002, published 2005)

Test system: type II collagen-induced arthritis of rats
Assay: Effects on type II collagen-induced arthritis (hind paw volume)
Format: in vivo, rat
Conditions: rats (female) sensitized with bovine type II collagen; test compound 6 mg/kg orally immediately before, 7 and 14 days after primary sensitization; average of eight per group; FIG. 1
Description: 1) Effects on Type II Collagen-Induced Arthritis
Model of type II collagen-induced arthritis has been widely used as an animal model for evaluating effects of drugs on rheumatic diseases (Nature, 283, 666-668 (1980)). Anti-arthritic effects of the present compounds were evaluated and studied according to this model.
A solution of bovine joint cartilage-derived type II collagen in 0.05 N acetic acid (2 mg/ml) was mixed with Freund's incomplete adjuvant of the same volume to prepare an emulsion (final concentration: 1 mg/ml).
As a primary sensitization, this emulsion was injected intradermally into five sites on the back of each rat (female, seven weeks old, weight: approximately 130 to 160 g) at a dose of 100 μl (total 500 μl: corresponding to 500 μg of type II collagen per rat). Seven days after the primary sensitization, 100 μl of this emulsion was injected intradermally into a root of the rat tail again (secondary sensitization). 0.5 ml/kg of a test compound solution (the test compound was dissolved in a 5% carboxymethylcellulose solution as a vehicle) was orally administered immediately before the primary sensitization, 7 days after the primary sensitization and 14 days after the primary sensitization. The dosage of test compound was adjusted to 6 mg/kg. […]

Q: For `Nc1ccccc1NC(=O)c1ccc(CNC(=O)COc2cccnc2)cc1` [Test compound 2, N-(2-aminophenyl)-4-[N-(pyridin-3 yl)oxyacetylaminomethyl]benzamide], which “increase in hind paw volume” value is on record?
A: any increase in hind paw volume could not be found
